Results published in patent US7368469B2, “Use of inhibitors of the renin-angiotensin system in the prevention of cardiovascular events” (Sanofi-Aventis Deutschland GmbH, priority 1999, dated 2008).
Like-named read-outs stand apart in the source and are kept apart here.

Legend:
[1] = system: high risk patients without known low EF or HF; assay type: in vivo; conditions: for Blood pressure: active group
Procedure: A large-scale clinical trial (HOPE (Heart Outcomes Prevention Evaluation) Study) was designed to examine the effect of the ACE inhibitor ramipril versus placebo in reducing cardiovascular events. 9,297 high risk patients (≧55 yrs with evidence of vascular disease or diabetes plus one additional risk factor), without known low EF or HF were randomized to receive Ramipril (2.5 mg to 10 mg/day) or matching placebo for a mean duration of 5 years. The primary outcome was the first occurrence of the composite of cardiovascular (CV) mortality, myocardial infarction or stroke. The study was stopped at 4.5 years by the independent Data and Safety Monitoring Board because of convincing evidence of benefit. 646 (13.9%) patients allocated to Ramipril and 816 (17.5%) placebo patients experienced a primary outcome (Relative risk, RR of 0.78, 95% confidence interval of 0.70-0.86; Portable=0.000002). There were clear and significant reductions separately in CV deaths (6.0% v. 8.0%, RR of 0.75, Portable=0.0002), myocardial infarction (9.8% v.12.0%, RR of 0.68, Portable=0.0002). […] Other outcomes included worsening or new angina, or new heart failure (irrespective of hospitalization).
In a double blind, 2×2 factorial, randomized trial, HOPE evaluated Ramipril or vitamin E in 9541 patients. A substudy of 244 patients tested a low dose (2.5 mg/day) versus the full dose (10 mg/day) of Ramipril. The primary outcome in these 244 patients is reported as a footnote to Table 3. Therefore the main results report is on 9,297 patients randomized to receive 10 mg Ramipril or equivalent placebo. The effects of vitamin E are reported separately. The design of HOPE has been published (Can J Cardiology 1996; 12(2); 127-137), a brief summary follows below:
Men and women were eligible if aged 55 years and older, with prior coronary artery disease, stroke, peripheral vascular disease or diabetes plus at least one other risk factor (current or previous hypertension, elevated total cholesterol, low HDL cholesterol, current cigarette smoking, known microalbuminuria or previous vascular disease). Patents who had HF, were known to have low EF, those on ACE-I or vitamin E, those with uncontrolled hypertension or overt nephropathy, or recent MI (<4 weeks) were excluded. In this large, simple trial it was impractical to measure left ventricular function in all patients (none of whom had heart failure or were considered to need an ACE-I). Instead, echocardiograms were done in all patients (n=496) from 3 centres who entered a substudy. […] Additionally, an audit of charts identified that in 5285 patients a prerandomization and evaluation of ventricular function had been conducted. Only 409 (7.7%) were documented to have low EF and none had heart failure prior to randomization. A separate analysis of those documented to have a preserved EF (n=4876) is provided. After obtaining written informed consent, all eligible patients entered a run in phase where they received 2.5 mg Ramipril OD for 7-10 days followed by matching placebo for 10-14 days. Patients who were non compliant (<80% of pills taken), who experienced side effects, developed abnormal creatinine or potassium levels or those who withdrew consent were excluded. 9,541 were included; 9,297 were randomized to receive Ramipril at 10 mg/day or matching placebo, with 244 randomized to low dose (2.5 mg/day) of Ramipril.
At randomization, patients were allocated to receive Ramipril at 2.5 mg OD for one week, then 5 mg OD for another 3 weeks, followed by 10 mg once daily, or matching placebo. Additionally, all patients were randomized to vitamin E 400 IU/day or matching placebo. Follow-up visits occurred at 1 month, 6 months and then at 6 month intervals. At each visit, data were collected on events, compliance, and side effects leading to alteration of study medications. All primary and secondary events were documented on additional forms and were centrally adjudicated using standardized definitions. […]

[2] = system: high risk patients without known low EF or HF; assay type: in vivo; conditions: subgroup with documented preserved ventricular function (n=4676), vs placebo
[3] = system: patients randomized to captopril compared to a diuretic or beta blocker; conditions: cited from earlier work
[4] = Ramipril 10 mg/day group, n=4645
[5] = Ramipril group, diabetic nephropathy, renal dialysis, laser therapy
[6] = Ramipril group, irrespective of hospitalization
[7] = both, human, in vivo, 4.5 years

In the case of CCOC(=O)[C@H](CCc1ccccc1)N[C@@H](C)C(=O)N1[C@H](C(=O)O)C[C@@H]2CCC[C@@H]21 [Ramipril, ramipril], the “Relative risk reduction (conditional RRR)” value ([1]; 2nd year) is reported as 22%, the “Relative risk reduction (conditional RRR)” value ([1]; 3rd year) is reported as 26% and the “Relative risk reduction (conditional RRR)” value ([1]; 4th year) is reported as 27%. For the same molecule, the “Relative risk reduction in the primary outcome at interim analysis” value ([1]; DSMB interim look, Mar. 22, 1999, 95% CI 12% to 28%) was 20%, the “Primary outcome CV death, MI, stroke: % of patients” value [1, 4] was 13.9% and the “Primary outcome CV death, MI, stroke: number of patients” value [1, 4] was 646. For the same molecule, the “New diagnosis of diabetes: % of patients” value ([1]; Ramipril group) was 3.8%, the “New diagnosis of diabetes: number of patients” value ([1]; Ramipril group) was 108 and the “Stopping blinded medication for hypotension/dizziness: %” value ([1]; Ramipril group) was 1.8%. For the same molecule, the “Stopping blinded medication for hypotension/dizziness: number” value ([1]; Ramipril group) was 82, the “Primary outcome: number of patients at 2 years” value ([1]; Ramipril group, at 2 years) was 323 and the “Cardiac arrests: % of patients” value ([1]; Ramipril group, n=4645) was 0.8%. The “Cardiac arrests: number of patients” value ([1]; Ramipril group, n=4645) was 37, the “Heart failure hospitalizations: % of patients” value ([1]; Ramipril group, n=4645) was 3.2% and the “Heart failure hospitalizations: number of patients” value ([1]; Ramipril group, n=4645) was 150. The “MI: % of patients” value ([1]; Ramipril group, n=4645) was 9.8%, the “MI: number of patients” value ([1]; Ramipril group, n=4645) was 453 and the “Revascularization: % of patients” value ([1]; Ramipril group, n=4645) was 16.0%. For the same molecule, the “Revascularization: number of patients” value ([1]; Ramipril group, n=4645) was 742, the “Strokes: % of patients” value ([1]; Ramipril group, n=4645) was 3.3% and the “Strokes: number of patients” value ([1]; Ramipril group, n=4645) was 155. For the same molecule, the “Total mortality: % of patients” value ([1]; Ramipril group, n=4645) was 10.3%, the “Total mortality: number of patients” value ([1]; Ramipril group, n=4645) was 476 and the “UA with ECG changes: % of patients” value ([1]; Ramipril group, n=4645) was 3.4%. For the same molecule, the “UA with ECG changes: number of patients” value ([1]; Ramipril group, n=4645) was 179, the “Unstable angina hospitalization: % of patients” value ([1]; Ramipril group, n=4645) was 12.1% and the “Unstable angina hospitalization: number of patients” value ([1]; Ramipril group, n=4645) was 564. For the same molecule, the “Primary outcome: number of patients within 1 year after randomization” value ([1]; Ramipril group, within 1 year) was 167, the “Permanently discontinuing blinded medication, % of alive” value ([1]; Ramipril group, % of alive) was 29.1% and the “Stopping blinded medication at any time, % of alive” value ([1]; Ramipril group, % of alive) was 33.0%. For the same molecule, the “Diabetic complications: % of patients” value [1, 5] was 6.4%, the “Diabetic complications: number of patients” value [1, 5] was 298 and the “All heart failure (new heart failure): number of patients” value [1, 6] was 343. For the same molecule, the “All heart failure: % of patients” value [1, 6] was 7.4%, the “Worsening angina: % of patients” value [1, 6] was 23.8% and the “Worsening angina: number of patients” value [1, 6] was 1104. For the same molecule, the “Difference in BP reduction, diastolic” value ([1]; Ramipril vs placebo) was −2 mmHg, the “Difference in BP reduction, systolic” value ([1]; Ramipril vs placebo) was −3 mmHg and the “Impact on hospitalizations for unstable angina” value ([1]; Ramipril vs placebo) was “no impact”. The “Increase in patients stopping medication for dizziness/hypotension” value ([1]; Ramipril vs placebo, nonsignificant) was 0.3%, the Blood pressure ([1]; at 1 month, 139/79 at entry) was 133/76 and the Blood pressure ([1]; at 2 years) was 135/76. For the same molecule, the Blood pressure ([1]; at the end of the study) was 136/76, the “Excess of patients stopping for cough” value [1, 7] was 5% and the “No. permanently discontinuing blinded medication” value [1, 7] was 1207. For the same molecule, the “No. stopping blinded medication at any time” value [1, 7] was 1370, the “Stopping blinded medication for angioedema: %” value [1, 7] was 0.3% and the “Stopping blinded medication for angioedema: number” value [1, 7] was 16. For the same molecule, the “Stopping blinded medication for cough: %” value [1, 7] was 7.2%, the “Stopping blinded medication for cough: number” value [1, 7] was 335 and the “Composite outcome of CV death, MI, stroke, heart failure, revascularization and diabetic complications” value ([1]; diabetic patients with no clinical manifestations of CVD (1100)) was “significantly reduced”. For the same molecule, the Relative risk reduction ([1]; first year of the trial) was “about 11%”, the “Primary outcome relative risk conditioned on survival up to the prior year” value ([1]; fourth year) was 0.73 and the Tolerability ([1]; in the trial) was “generally well tolerated”. For the same molecule, the “Primary outcome relative risk conditioned on survival up to the prior year” value ([1]; second year) was 0.78, the “Primary composite outcome relative risk (95% CI)” value ([1]; subgroup Age 65+, 5128 patients) was 0.75 (0.66-0.85) and the “Primary composite outcome relative risk (95% CI)” value ([1]; subgroup Age <65, 4169 patients) was 0.82 (0.70-0.98). The “Primary composite outcome relative risk (95% CI)” value ([1]; subgroup CAD+, 7475 patients) was 0.80 (0.71-0.89), the “Primary composite outcome relative risk (95% CI)” value ([1]; subgroup CAD−, 1822 patients) was 0.71 (0.54-0.93) and the “Primary composite outcome relative risk (95% CI)” value ([1]; subgroup CVD+, 8160 patients, Ramipril vs placebo) was 078 (0.71-0.87). For the same molecule, the “Primary composite outcome relative risk (95% CI)” value ([1]; subgroup CVD−, 1137 patients) was 0.81 (0.56-1.20), the “Primary composite outcome relative risk (95% CI)” value ([1]; subgroup Cerebro VD+, 1013 patients) was 0.73 (0.56-0.95) and the “Primary composite outcome relative risk (95% CI)” value ([1]; subgroup Cerebro VD−, 8284 patients) was 0.79 (0.71-0.88). For the same molecule, the “Primary composite outcome relative risk (95% CI)” value ([1]; subgroup Diabetes+, 3578 patients) was 0.76 (0.65-0.89), the “Primary composite outcome relative risk (95% CI)” value ([1]; subgroup Diabetes−, 5719 patients) was 0.79 (0.69-0.91) and the “Primary composite outcome relative risk (95% CI)” value ([1]; subgroup Female, 2480 patients) was 0.76 (0.61-0.95). The “Primary composite outcome relative risk (95% CI)” value ([1]; subgroup Hypertension+, 4355 patients) was 0.75 (0.65-0.87), the “Primary composite outcome relative risk (95% CI)” value ([1]; subgroup Hypertension−, 4942 patients) was 0.81 (0.70-0.93) and the “Primary composite outcome relative risk (95% CI)” value ([1]; subgroup MA+ (microalbuminuria), 1963 patients) was 0.71 (0.59-0.86). The “Primary composite outcome relative risk (95% CI)” value ([1]; subgroup MA−, 7334 patients) was 0.82 (0.72-0.92), the “Primary composite outcome relative risk (95% CI)” value ([1]; subgroup Male, 6817 patients) was 0.79 (0.70-0.89) and the “Primary composite outcome relative risk (95% CI)” value ([1]; subgroup PVD+, 4046 patients) was 0.74 (0.64-0.86). For the same molecule, the “Primary composite outcome relative risk (95% CI)” value ([1]; subgroup PVD−, 5251 patients) was 0.84 (0.72-0.98), the “Primary composite outcome relative risk (95% CI)” value ([1]; subgroup Prior MI+, 4892 patients) was 0.79 (0.69-0.90) and the “Primary outcome, events/patients, documented EF≧0.40” value ([1]; subgroup with documented EF≧0.40 (n=4676), Ramipril group) was 317/2339. The “Primary outcome relative risk conditioned on survival up to the prior year” value ([1]; third year) was 0.74, the “Primary outcome RR at 2 years” value ([1]; vs placebo, at 2 years) was 0.81 and the “Primary outcome RR within 1 year after randomization” value ([1]; vs placebo, within 1 year) was 0.85. For the same molecule, the “Primary outcome RR, documented EF≧0.40” value [2] was 0.73.

In the case of C[C@H](CS)C(=O)N1CCC[C@H]1C(=O)O [captopril], the Newly diagnosed diabetes [3] is listed as “reduction in newly diagnosed diabetes”.
